Patent publication US20220145303A1, “FRAGILE X MENTAL RETARDATION PROTEIN INTERFERING OLIGONUCLEOTIDES AND METHODS OF USING SAME” (Nogra Pharma Limited, priority 2019, published 2022)

Legend:
FMRP = FMRP knockdown: Western blot of FMRP after transfection with FMRP antisense or sense oligonucleotide; format: cell-based, human; details: 48 hours, AS 0.5-100 nM, S 100 nM
Description: Total proteins were extracted from mouse colonic tissues, and lysed on ice in buffer containing 10 mM HEPES [pH 7.9], 10 mM KCl, 0.1 mM EthyleneDiamineTetraacetic Acid (EDTA), 0.2 mM Ethylene Glycol-bis (β-aminoethyl ether)-N,N,N′,N′-Tetraacetic Acid (EGTA) and 0.5% Nonidet P40 supplemented with 1 mM dithiothreitol (DTT), […], […], 1 mM phenylmethylsulfonyl fluoride (PMSF), 1 mM Na3VO4, and 1 mM NaF. Lysates were clarified by centrifugation and separated on sodium dodecyl sulphate (SDS)-polyacrylamide gel electrophoresis. Blots were incubated with antibodies against: FMRP (Cell Signaling, Danvers, Mass.), followed by a secondary antibody conjugated to horseradish peroxidase (Dako, Milan, Italy). After analysis, each blot was stripped and incubated with a mouse-anti-human monoclonal β-actin antibody (Sigma-Aldrich) to ascertain equivalent loading of the lanes.
Human CRC cell lines, DLD-1 and HCT-116, were obtained from the American Type Culture Collection (ATCC, Manassas, Va.) and cultured in RPMI 1640 (DLD-1) and McCoy's 5A (HCT-116) medium, respectively. All media were supplemented with 10% fetal bovine serum, 1% penicillin/streptomycin (both from Lonza, Verviers, Belgium). The normal human colon epithelial cell line (HCEC-1ct) was obtained from EVERCYTE GmbH (Vienna, Austria) and cultured in ColoUp® medium (EVERCYTE GmbH). Cells were maintained in a 37° C., 5% CO2, fully humidified incubator. Cell line lysates were prepared and analyzed by SDS-polyacrylamide gel electrophoresis/immunoblot using methods as previously described in Example 2. For immunofluorescent staining, cell lines were fixed with 3.7% formaldehyde for 10 minutes at 4° C., permeabilized with 0.1% Triton for 10 minutes at room temperature and blocked (1% bovine serum albumin, Tween 0.1%, glycine 2%) for 1 hour at room temperature. Fixed and blocked cells were incubated with anti-FMRP monoclonal antibody (1:500, Cell Signaling, Danvers, Mass.) overnight at 4° C. After washing with PBS, secondary antibody goat anti-rabbit Alexa 488 (1:2000, A11008; Invitrogen) was applied for 1 hour at room temperature. Slides were washed with PBS, mounted using Prolong Gold® anti-fade reagent with 4′,6-diamidino-2-phenylindole (P36931; Invitrogen) and analyzed by a Leica DMI4000 B microscope with Leica application suite software (V4.6.2).
Phosphorothioate single-stranded antisense oligonucleotides complementary to human FMRP [5′-[…]-3′ (SEQ ID NO: 6)] and single-stranded sense oligonucleotides [5′-[…]-3′ (SEQ ID NO: 15)] were synthesized. CRC cell lines and HCEC-1ct cells were transfected with either FMRP antisense (AS)(final concentration 0.5-100 nM) or FMRP sense oligonucleotide (S) (final concentration100 nM) for 24 and 48 hours, using Opti-MEM medium and lipofectamine 3000 reagent (Thermo Fisher Scientific, Waltham, Mass., USA) according to the manufacturer's instructions.

MLKL = assay: Western blot of phospho-MLKL after FMRP antisense treatment; format: cell-based; details: human CRC cell lines, 24 hours, FIGS. 6A, 6D
Description: To confirm the association of FMRP with components of the necroptosis pathway, cells were left untreated or transfected with either FMRP antisense oligonucleotide (final concentration 0.5 nM and 100 nM) or FMRP sense oligonucleotide (final concentration 100 nM); incubated with a pMLKL inhibitor (necrosulfonamide, NSA; final concentration 1 μM)(Calbiochem); or a pRIPK1 inhibitor (necrostatinl, NEC1; final concentration 10 μM)(Cayman Chemical, Ann Arbor, Mich. USA). After 24 hours cells were collected and analyzed by Western blot, or stained with FITC-Annexin V and PI for flow cytometry analysis, as previously described in Examples 1-3.

HCT-116 cells = assay: Cell migration (pseudo-wound closure) with Ibidi culture insert; format: cell-based, human; details: HCT-116, AS 0.5 nM, T24 and T48, vs untreated or sense, FIGS. 8A, 8B
Description: To investigate the role of FMRP in tumor cell migration and invasion, HCT-116 cells were seeded in each side of an Ibidi® culture insert and grown to confluence then left untreated (U) or transfected with sense FMRP oligonucleotide (S) (final concentration 0.5 nM) or antisense FMRP oligonucleotide (AS) (final concentration 0.5 nM). Additionally, HCT-116 cells were seeded in Transwell® inserts precoated with Matrigel®, and either left untreated (U) or transfected with sense oligonucleotide (S) (final concentration 100 nM) or antisense FMRP oligonucleotide (AS) (final concentration 0.5 nM) for 48 hours.
To determine whether MCC regulation of the E-cadherin/β-catenin complex is also required for the observed inhibition of colorectal cell line migration and invasion (e.g., FIGS. 8A and 8B), HCT-116 cells were seeded in each side of an Ibidi® culture insert and grown to confluence then left untreated (U) or transfected with sense oligonucleotide (S) (final concentration 0.5 nM) or antisense oligonucleotide (AS) (final concentration 0.5 nM) and/or siRNA Ctrl or siRNA MCC.

E-cadherin = assay: Western blot of E-cadherin in HCT-116 cells; format: cell-based, human; details: HCT-116, AS 0.5 nM, 48 hours, vs untreated or sense, FIGS. 8E, 8F
Description: To determine whether FMRP regulates levels of E-cadherin and/or β-catenin, key proteins associated with cellular adhesion, cytoskeletal remodeling, and inhibition of tumor migration and invasion, cells were left untreated (U), or transfected with either FMRP sense (S) oligonucleotide (final concentration 0.5 nM) or FMRP antisense (AS) oligonucleotide (final concentration 0.5 nM) for 48 hours.
Recent studies have described a novel tumor suppressor function of MCC in the regulation of E-cadherin/β-catenin complex-mediated cell-cell adhesion in colorectal cells. To investigate whether MCC mediates the observed increase of E-cadherin and β-catenin expression in HCT-116 cells transfected with antisense FMRP oligonucleotide (e.g., FIGS. 8E-8G), cells were left untreated (U) or transfected with sense FMRP oligonucleotide (final concentration 0.5 nM), or antisense FMRP oligonucleotide (final concentration 0.5 nM), and/or control siRNA (siRNA Ctrl) or siRNA specific for MCC (siRNA MCC) for 48 hours.

Substance: 5′-TCCACCACCAGCTCCTCCAT-3′ (all phosphorothioate, sugars by position and methylation of C not given here) [FMRP antisense oligonucleotide, Phosphorothioate single-stranded antisense oligonucleotides complementary to human FMRP]
- FMRP expression (FMRP; DLD-1 cells, FIG. 3D): significantly inhibited FMRP expression
- FMRP expression (FMRP; HCEC-1ct cells, FIG. 3I): significantly inhibited FMRP expression
- FMRP expression (FMRP; HCT-116 cells, FIG. 3G): significantly inhibited FMRP expression
- phosphorylation of MLKL (MLKL): increased phosphorylation
- percentage of cell-covered area (pseudo-wound) (HCT-116 cells): significantly reduced the percentage of cells covering a pseudo-“wound”
- E-cadherin protein expression (E-cadherin): significantly increased
